Experiments:
PDGFRβ NIH-3T3 cells = assay: PDGF ligand-dependent cell proliferation; type: cell-based; conditions: Mus musculus, NIH3T3; NIH-3T3 expressing human PDGFRβ, PDGF BB 50 ng/ml, 72 hours, MTS
Protocol: Measurement of in vivo inhibition on receptor ligand-dependent cell proliferation: PDGF dependent cell proliferation:
NIH-3T3 mouse fibroblasts cell line engineered to stably express human PDGFRβ was constructed and used to evaluate PDGF dependent cell proliferation. PDGFRβ NIH-3T3 cells were plated into 96-well plates at 5,000 per well and incubated with serum-free medium for 24 hours. Compounds and PDGF BB (50 ng/ml) were added and incubated for 72 hours in serum-free medium. The effects on proliferation were determined by addition of MTS reagent (Promega) according to the instruction, incubation for 2 hours at 37° C. in CO2 incubator, and record the absorbance at 490 nm using an ELISA plate reader.

Class I HDAC = assay: P21 reporter assay in HeLa cells; type: cell-based, human; conditions: for EC50: 24 hours; for Class I HDAC (P21 reporter assay) % Max Resp of CS055 at 3 μM: relative to CS055 at 3 μM
Protocol: HDAC subtype selectivity inhibition assay of tested compounds was carried out by several reporter gene assays experiments. Briefly, HeLa cells were seeded in 96-well plates the day before transfection to give a confluence of 50-80%. Cells were transfected with one of reporter gene plasmid containing a promoter sequence or response element upstream of a luciferase gene construct using FuGene6 transfection reagent according to the manufacturer's instruction (Roche). The promoters or response elements including p21-promoter, gdf11-promoter, MEF-binding element (MEF2), Nur77-promoter were fused upstream to the luciferase gene reporter construct. For normalizing the transfection efficiency, a GFP expression plasmid was cotransfected. Cells were allowed to express protein for 24 hours followed by addition of individual compounds or the vehicle (DMSO). 24 hours later the cells were harvested, and the luciferase assay and GFP assay were performed using corresponding assay kits according to the manufacturer's instructions (Promega).

HeLa = assay: Tumor cell proliferation (MTS), HeLa; type: cell-based; conditions: Homo sapiens, 72 hours
Protocol: Measurement of in vivo cell proliferation:
Tumor cells were trypsinized and plated into 96-well plates at 3,000 per well and incubated in complete medium with 10% FBS for 24 hours. Compounds were added over a final concentration range of 100 μmol/L to 100 nmol/L in 0.1% DMSO and incubated for 72 hours in complete medium. The effects on proliferation were determined by addition of MTS reagent (Promega) according to the instruction, incubation for 2 hours at 37° C. in CO2 incubator, and record the absorbance at 490 nm using an ELISA plate reader.

Row | SMILES | GI50 (PDGFRβ NIH-3T3 cells) [nM] | EC50 (Class I HDAC) [nM] | Class I HDAC (P21 reporter assay) % Max Resp of CS055 at 3 μM (Class I HDAC) [%] | GI50 (HeLa) [µM]
1 | Cc1[nH]c(/C=C2\C(=O)Nc3ccc(F)cc32)c(C)c1C(=O)NCCNc1ccc(C(=O)Nc2ccccc2N)cn1 [Example 3, (Z)-N-(2-aminophenyl)-6-(2-(2-((5-fluoro-2-oxoindolin-3-ylidene)methyl)-3,5-dimethyl-1H-pyrrole-4-carboxamido)ethylamino)nicotinamide] | > 1000 | 2300 | 131.7 | > 60
2 | Cc1[nH]c(/C=N/N=C2\C(=O)Nc3ccc(F)cc32)c(C)c1C(=O)NCCNc1ccc(C(=O)Nc2ccccc2N)cn1 [Example 4, N-(2-aminophenyl)-6-(2-(2-(((5-fluoro-2-oxoindolin-3-ylidene)hydrazono)-methyl)-3,5-dimethyl-1H-pyrrole-4-carboxamido)ethylamino)nicotinamide] | > 1000 | – | 3.3 | > 60
3 | Cc1[nH]c(/C=C2\C(=O)Nc3ccc(F)cc32)c(C)c1C(=O)NCCCNc1ccc(C(=O)Nc2ccccc2N)cn1 [Example 6, (Z)-N-(2-aminophenyl)-6-(3-(2-((5-fluoro-2-oxoindolin-3-ylidene)methyl)-3,5-dimethyl-1H-pyrrole-4-carboxamido)propylamino)nicotinamide] | > 1000 | 2500 | 74.6 | > 60
4 | Cc1[nH]c(/C=N/N=C2\C(=O)Nc3ccc(F)cc32)c(C)c1C(=O)NCCCNc1ccc(C(=O)Nc2ccccc2N)cn1 [Example 7, N-(2-aminophenyl)-6-(3-(2-(((5-fluoro-2-oxoindolin-3-ylidene)hydrazono)-methyl)-3,5-dimethyl-1H-pyrrole-4-carboxamido)propylamino)nicotinamide] | > 1000 | – | 6.2 | > 60
5 | Cc1[nH]c(/C=C2\C(=O)Nc3ccc(F)cc32)c(C)c1C(=O)NCCCCNc1ccc(C(=O)Nc2ccccc2N)cn1 [Example 9, (Z)-N-(2-aminophenyl)-6-(4-(2-((5-fluoro-2-oxoindolin-3-ylidene)methyl)-3,5-dimethyl-1H-pyrrole-4-carboxamido)butylamino)nicotinamide] | 105 | 13400 | 89.1 | > 60
6 | Cc1[nH]c(/C=N/N=C2\C(=O)Nc3ccc(F)cc32)c(C)c1C(=O)NCCCCNc1ccc(C(=O)Nc2ccccc2N)cn1 [Example 10, N-(2-aminophenyl)-6-(4-(2-(((5-fluoro-2-oxoindolin-3-ylidene)hydrazono)-methyl)-3,5-dimethyl-1H-pyrrole-4-carboxamido)butylamino)nicotinamide] | > 1000 | – | 7.3 | > 60
7 | Cc1[nH]c(/C=C2\C(=O)Nc3ccc(F)cc32)c(C)c1C(=O)NCCNc1ccc(C(=O)Nc2ccc(F)cc2N)cn1 [Example 13, (Z)-N-(2-amino-4-fluorophenyl)-6-(2-(2-((5-fluoro-2-oxoindolin-3-ylidene)-methyl)-3,5-dimethyl-1H-pyrrole-4-carboxamido)ethylamino)nicotinamide] | > 1000 | – | 2.1 | > 60
8 | Cc1[nH]c(/C=N/N=C2\C(=O)Nc3ccc(F)cc32)c(C)c1C(=O)NCCNc1ccc(C(=O)Nc2ccc(F)cc2N)cn1 [Example 14, N-(2-amino-4-fluorophenyl)-6-(2-(2-(((5-fluoro-2-oxoindolin-3-ylidene)-hydrazono)methyl)-3,5-dimethyl-1H-pyrrole-4-carboxamido)ethylamino)nicotinamide] | > 1000 | – | 2.1 | > 60
9 | Cc1[nH]c(/C=C2\C(=O)Nc3ccc(F)cc32)c(C)c1C(=O)NCCCNc1ccc(C(=O)Nc2ccc(F)cc2N)cn1 [Example 16, (Z)-N-(2-amino-4-fluorophenyl)-6-(3-(2-((5-fluoro-2-oxoindolin-3-ylidene)-methyl)-3,5-dimethyl-1H-pyrrole-4-carboxamido)propylamino)nicotinamide] | > 1000 | – | 2.5 | > 60
10 | Cc1[nH]c(/C=N/N=C2\C(=O)Nc3ccc(F)cc32)c(C)c1C(=O)NCCCNc1ccc(C(=O)Nc2ccc(F)cc2N)cn1 [Example 17, N-(2-amino-4-fluorophenyl)-6-(3-(2-(((5-fluoro-2-oxoindolin-3-ylidene)-hydrazono)methyl)-3,5-dimethyl-1H-pyrrole-4-carboxamido)propylamino)nicotinamide] | > 1000 | – | 3.4 | > 60
11 | Cc1[nH]c(/C=C2\C(=O)Nc3ccc(F)cc32)c(C)c1C(=O)NCCCCNc1ccc(C(=O)Nc2ccc(F)cc2N)cn1 [Example 19, (Z)-N-(2-amino-4-fluorophenyl)-6-(4-(2-((5-fluoro-2-oxoindolin-3-ylidene)-methyl)-3,5-dimethyl-1H-pyrrole-4-carboxamido)butylamino)nicotinamide] | > 1000 | – | 2.3 | > 60
12 | Cc1[nH]c(/C=N/N=C2\C(=O)Nc3ccc(F)cc32)c(C)c1C(=O)NCCCCNc1ccc(C(=O)Nc2ccc(F)cc2N)cn1 [Example 20, N-(2-amino-4-fluorophenyl)-6-(4-(2-(((5-fluoro-2-oxoindolin-3-ylidene)-hydrazono)methyl)-3,5-dimethyl-1H-pyrrole-4-carboxamido)butylamino)nicotinamide] | > 1000 | – | 2.8 | > 60
